{
  "source": "patent US8163771B2",
  "about": "“11 β-HSD1 modulators” (Exelixis, Inc., priority 2008, dated 2012)",
  "data": [
    {"molecular_target": "T1, recombinant human 11 β-HSD1 (Homo sapiens, UniProt P28845)", "T1 construct": "made in house; host or cells: E. coli", "T1 sequence (P28845 whole entry)": "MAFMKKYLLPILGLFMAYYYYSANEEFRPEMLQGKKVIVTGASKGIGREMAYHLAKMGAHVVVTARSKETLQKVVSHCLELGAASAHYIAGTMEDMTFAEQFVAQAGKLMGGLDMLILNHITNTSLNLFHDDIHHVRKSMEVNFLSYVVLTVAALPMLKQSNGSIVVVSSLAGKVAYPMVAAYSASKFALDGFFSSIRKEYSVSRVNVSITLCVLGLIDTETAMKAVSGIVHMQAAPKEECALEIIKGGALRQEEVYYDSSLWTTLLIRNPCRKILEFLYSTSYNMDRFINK", "assay": "11 β-HSD1 SPA Assay (Scintillation Proximity Assay)", "format": "biochemical", "summary_of_the_method": "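Scintillation proximity read-out of cortisol formed from 40 nM [3H]cortisone by purified recombinant human enzyme (30-100 nM, E. coli) with 1 mM NADPH, pH7.4, 2 hours at room temperature; beads with cortisol antibody and glycyrrhetinic acid stop the reaction, read next day. IC50 derived from inhibition normalised to background and maximal wells.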", "units": {"IC50": "µM"}, "values": [
      {"smiles": "C[C@H](NC(=O)c1ccc(N2C3CCC2CC(NC(=O)C(C)(C)Oc2ncc(F)cc2C(F)F)C3)nc1)C(F)(F)F", "note": "(stereo partly drawn) [Example 439, 6-{3-endo-[(2-{[3-(difluoromethyl)-5-fluoropyridin-2-yl]oxy}-2-methylpropanoyl)amino]-8-azabicyclo[3.2.1]oct-8-yl}-N-[(2S)-1,1,1-trifluoropropan-2-yl]pyridine-3-carboxamide]", "IC50": "< 2"},
      {"smiles": "CC(C)(Oc1ccc(Cl)cc1C(N)=O)C(=O)N[C@H]1C[C@H]2CC[C@@H](C1)N2c1ccc(C(=O)NCC(F)(F)F)cn1", "note": "[Example 360, 6-(3-endo-{[2-(2-carbamoyl-4-chlorophenoxy)-2-methylpropanoyl]amino}-8-azabicyclo[3.2.1]oct-8-yl)-N-(2,2,2-trifluoroethyl)pyridine-3-carboxamide]", "IC50": "< 0.2"},
      {"smiles": "CC(C)(Oc1ccc(F)cc1Cl)C(=O)NC1CC2CCC(C1)N2c1ccc(C(=O)NCC(O)C(F)(F)F)cn1", "note": "(stereo not drawn) [Example 457, 6-(3-endo-{[2-(2-chloro-4-fluorophenoxy)-2-methylpropanoyl]amino}-8-azabicyclo[3.2.1]oct-8-yl)-N-(3,3,3-trifluoro-2-hydroxypropyl)pyridine-3-carboxamide]", "IC50": "< 0.2"},
      {"smiles": "CC(C)(Oc1ncc(F)cc1C(F)F)C(=O)N[C@H]1C[C@H]2CC[C@@H](C1)N2c1ccc(C(=O)NCC(F)F)cn1", "note": "[Example 440, N-(2,2-difluoroethyl)-6-{3-endo-[(2-{[3-(difluoromethyl)-5-fluoropyridin-2-yl]oxy}-2-methylpropanoyl)amino]-8-azabicyclo[3.2.1]oct-8-yl}pyridine-3-carboxamide]", "IC50": "< 0.2"},
      {"smiles": "CC(C)(Oc1ccc(Cl)cc1OC(F)(F)F)C(=O)NC1CC2CCC(C1)N2c1ccc(C(=O)N2CCC(O)C2)cn1", "note": "(stereo not drawn) [Example 454, 2-[4-chloro-2-(trifluoromethoxy)phenoxy]-n-(8-{5-[(3-hydroxypyrrolidin-1-yl)carbonyl]pyridin-2-yl}-8-azabicyclo[3.2.1]oct-3-endo-yl)-2-methylpropanamide]", "IC50": "< 0.2"},
      {"smiles": "CC(C)(Oc1ccc(Cl)cc1)C(=O)N[C@H]1C[C@H]2CC[C@@H](C1)N2c1cnccn1", "note": "[Example 66, 2-[(4-chlorophenyl)oxy]-2-methyl-N-(8-pyrazin-2-yl-8-azabicyclo[3.2.1]oct-3-endo-yl)propanamide]", "IC50": "< 0.2"},
      {"smiles": "O=C(NC1CC1)c1ccc(N2[C@@H]3CC[C@H]2C[C@@H](NC(=O)C2(c4ccc(F)c(F)c4)CC2)C3)nc1", "note": "[Example 28, N-cyclopropyl-6-[3-endo-({[1-(3,4-difluorophenyl)cyclopropyl]carbonyl}amino)-8-azabicyclo[3.2.1]oct-8-yl]pyridine-3-carboxamide]", "IC50": "< 0.2"},
      {"smiles": "CC(C)(Oc1ccc(Cl)cc1Cl)C(=O)NC1CC2CCC(C1)N2c1ccc(C(=O)NC[C@H](O)C(F)(F)F)cn1", "note": "(stereo partly drawn) [Example 456, 6-(3-endo-{[2-(2,4-dichlorophenoxy)-2-methylpropanoyl]amino}-8-azabicyclo[3.2.1]oct-8-yl)-N-[(2S)-3,3,3-trifluoro-2-hydroxypropyl]pyridine-3-carboxamide]", "IC50": "< 0.2"},
      {"smiles": "C[C@@H](NC(=O)c1ccc(N2C3CCC2CC(NC(=O)C(C)(C)Oc2ccc(Cl)cc2C(F)(F)F)C3)nc1)C(F)(F)F", "note": "(stereo partly drawn) [Example 412, 6-(3-endo-(2-(4-chloro-2-(trifluoromethyl)phenoxy)-2-methylpropanamido)-8-azabicyclo[3.2.1]octan-8-yl)-N-((R)-1,1,1-trifluoropropan-2-yl)nicotinamide]", "IC50": "< 0.2"},
      {"smiles": "CC(C)(Oc1cc(CO)c(Cl)cc1Cl)C(=O)NC1CC2CCC(C1)N2c1ccc(C(=O)NCC(F)F)cn1", "note": "(stereo not drawn) [Example 428, 6-[3-endo-({2-[2,4-dichloro-5-(hydroxymethyl)phenoxy]-2-methylpropanoyl}amino)-8-azabicyclo[3.2.1]oct-8-yl]-N-(2,2-difluoroethyl)pyridine-3-carboxamide]", "IC50": "< 0.2"},
      {"smiles": "COc1ccc(OC(C)(C)C(=O)NC2CC3CCC(C2)N3c2ccc(S(C)(=O)=O)cn2)c(Cl)c1", "note": "(stereo not drawn) [Example 253, 2-{[2-chloro-4-(methyloxy)phenyl]oxy}-2-methyl-N-{8-[5-(methylsulfonyl)pyridin-2-yl]-8-azabicyclo[3.2.1]oct-3-endo-yl}propanamide]", "IC50": "< 0.2"},
      {"smiles": "CC(C)(Oc1ccc(Cl)cc1F)C(=O)N[C@H]1C[C@H]2CC[C@@H](C1)N2c1ccc(S(C)(=O)=O)cn1", "note": "[Example 229, 2-[(4-chloro-2-fluorophenyl)oxy]-2-methyl-N-{8-[5-(methylsulfonyl)pyridin-2-yl]-8-azabicyclo[3.2.1]oct-3-endo-yl}propanamide]", "IC50": "< 0.2"},
      {"smiles": "CC(C)(Oc1ccc(C(F)(F)F)cc1)C(=O)N[C@H]1C[C@H]2CC[C@@H](C1)N2c1ccc(C(=O)NCC(F)(F)F)cn1", "note": "[Example 111, 6-{3-endo-[(2-methyl-2-{[4-(trifluoromethyl)phenyl]oxy}propanoyl)amino]-8-azabicyclo[3.2.1]oct-8-yl}-N-(2,2,2-trifluoroethyl)pyridine-3-carboxamide]", "IC50": "< 0.2"},
      {"smiles": "C[C@@H](NC(=O)c1ccc(N2C3CCC2CC(NC(=O)C(C)(C)Oc2ccc(Cl)cc2OC(F)(F)F)C3)nc1)C(F)(F)F", "note": "(stereo partly drawn) [Example 415, 6-[3-endo-({2-[4-chloro-2-(trifluoromethoxy)phenoxy]-2-methylpropanoyl}amino)-8-azabicyclo[3.2.1]oct-8-yl]-N-[(2R)-1,1,1-trifluoropropan-2-yl]pyridine-3-carboxamide]", "IC50": "< 0.2"},
      {"smiles": "CC(C)(Oc1ccc(F)cc1C(F)(F)F)C(=O)NC1CC2CCC(C1)N2c1ccc(C(=O)NC2CC2(F)F)cn1", "note": "(stereo not drawn) [Example 369, N-(2,2-difluorocyclopropyl)-6-[3-endo-({2-[4-fluoro-2-(trifluoromethyl)phenoxy]-2-methylpropanoyl}amino)-8-azabicyclo[3.2.1]oct-8-yl]pyridine-3-carboxamide]", "IC50": "< 0.2"},
      {"smiles": "CC(C)(Oc1ccc(Cl)cc1S(C)(=O)=O)C(=O)N[C@H]1C[C@H]2CC[C@@H](C1)N2c1ccc(S(C)(=O)=O)cn1", "note": "[Example 324, 2-{[4-chloro-2-(methylsulfonyl)phenyl]oxy}-2-methyl-N-{8-[5-(methylsulfonyl)pyridin-2-yl]-8-azabicyclo[3.2.1]oct-3-endo-yl}propanamide]", "IC50": "< 2"},
      {"smiles": "CC(C)(Oc1ccc(F)c(Cl)c1)C(=O)N[C@H]1C[C@H]2CC[C@@H](C1)N2c1ccc(S(N)(=O)=O)cn1", "note": "[Example 227, N-{8-[5-(aminosulfonyl)pyridin-2-yl]-8-azabicyclo[3.2.1]oct-3-endo-yl}-2-[(3-chloro-4-fluorophenyl)oxy]-2-methylpropanamide]", "IC50": "< 0.2"},
      {"smiles": "CC(C)(Oc1ccccc1C(F)(F)F)C(=O)N[C@H]1C[C@H]2CC[C@@H](C1)N2c1ccc(C(=O)NC2CC2)cn1", "note": "[Example 113, N-cyclopropyl-6-{3-endo-[(2-methyl-2-{[2-(trifluoromethyl)phenyl]oxy}propanoyl)amino]-8-azabicyclo[3.2.1]oct-8-yl}pyridine-3-carboxamide]", "IC50": "< 0.2"},
      {"smiles": "CC(C)(Oc1cc(Cl)c(F)cc1Cl)C(=O)N[C@H]1C[C@H]2CC[C@@H](C1)N2c1ccc(S(N)(=O)=O)cn1", "note": "[Example 157, N-{8-[5-(aminosulfonyl)pyridin-2-yl]-8-azabicyclo[3.2.1]oct-3-endo-yl}-2-[(2,5-dichloro-4-fluorophenyl)oxy]-2-methylpropanamide]", "IC50": "< 0.2"}
    ]}
  ]
}
